Measurements as given in patent publication US12241114B2, “Biophysical platform for drug development based on energy landscape” (BRANDEIS UNIVERSITY, priority 2014, dated 2025).
Where a chain is given by its changes, count along the chain named. One block for each compound: values may come before it.

Tests used:
[1] = target: T1, unphosphorylated Aurora A (Homo sapiens, UniProt O14965); experiment: Stopped-flow tryptophan fluorescence binding and dissociation kinetics on unphosphorylated Aurora A
T1 sequence (O14965 122-403): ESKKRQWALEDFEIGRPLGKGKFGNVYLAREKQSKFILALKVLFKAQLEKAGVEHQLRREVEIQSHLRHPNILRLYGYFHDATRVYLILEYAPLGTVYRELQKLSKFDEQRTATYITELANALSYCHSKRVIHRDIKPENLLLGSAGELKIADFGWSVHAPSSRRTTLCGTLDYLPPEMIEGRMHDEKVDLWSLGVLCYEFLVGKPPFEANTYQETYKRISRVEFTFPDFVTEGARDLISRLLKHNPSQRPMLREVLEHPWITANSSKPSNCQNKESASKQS
Protocol: The stopped-flow instrument is a SX20 series from AppliedPhotophysics.
In the following equations, K1, K2 and K3 equal to:
[formula] Error bars calculations of the dissociation constant parameter (calculated from the kinetics) are calculated using classical error propagation equations. Aurora A Wild-Type Binding to MantATP

Aurora A wild-type = target: T2, Aurora A wild-type (Homo sapiens, UniProt O14965); experiment: FRET stopped-flow kinetics of MantATP binding to Aurora A; conditions: 10° C., double exponential
T2 sequence (O14965 122-403): T1 sequence (O14965 122-403)
Protocol: FRET using intrinsic tryptophan fluorescence is used to monitor MantATP binding kinetics to Aurora A at 10° C. […] In the release of MantATP experiment or koff, 10 μM/10 μM Aurora A/MantATP complex were diluted with buffer (ratio 1:10). A significant decrease in the fluorescence intensity of Aurora A (excitation at 295 nm, emission cut-off at 395 nm) can be seen due to the MantATP release.

Y199H modern Aurora A = target: T3, Y199H modern Aurora A (Homo sapiens, UniProt O14965, T288V/Y199H); experiment: Isothermal titration calorimetry of TPX2 binding to Y199H Aurora A; conditions: Y199H versus modern Aurora A
T3 sequence (O14965 122-403 Y199H/T288V): T1 sequence (O14965 122-403) with Y78H, T167V
Protocol: FIGS. 33A-33C are plots and schematics showing Y199 is an Aurora A hotspot important in TPX2 binding.
All titrations were carried out using Nano ITC (TA instruments) and analyzed via the NanoAnalyze software using the independent fit model. Injectant was added in […] volume, every 180 s, with a constant stirring speed at 350 rpm and at 25° C. Prior to ITC titration, both protein and peptide were dialyzed/resuspended in 20 mM TrisHCl, 200 mM NaCl, 10% (v/v) glycerol, 1 mM TCEP, pH 7.50.

- tighter binding from the conformational change after drug binding [1]: three orders of magnitude
- weakening of overall affinity by the DFG-in/-out equilibrium [1]: 20%
- dissociation kinetics ([1]; 25° C., after 30-fold dilution of the complex): slow, taking hours to be released
- Keq of the induced fit step ([1]; 25° C., global fit): 5×10^−4
Compound: CO[C@@H](C(=O)N1Cc2n[nH]c(NC(=O)c3ccc(N4CCN(C)CC4)cc3)c2C1)c1ccccc1 [Danusertib]

- apparent rate constant of dissociation ([1]; 10° C., after 10-fold dilution of the complex): 50 s⁻¹
- observed off rate, times faster than the Danusertib off rate ([1]; Gleevec versus Danusertib): 10^6-10^7
Compound: Cc1ccc(NC(=O)c2ccc(CN3CCN(C)CC3)cc2)cc1Nc1nccc(-c2cccnc2)n1 [Gleevec]

- plateau of second observed rate constant (Aurora A wild-type): around 20 s^−1
Compound: MantATP

- weakening of binding by Y199H mutation of Aurora A (Y199H modern Aurora A): approximately 20 fold
Compound: modern TPX2: modern-day TPX2 protein, allosteric activator of Aurora A, residues 1-45 (MSQVKSSYSYDAPSDFINFSSLDDEGDTQNIDSWFEEKANLENKL; UniProt Q9ULW0 1-45, looked up, fragment)
